In patent US10745363B2 (NORATECH PHARMACEUTICALS, INC., priority 2016, dated 2020):
Counter-ions that a name gives are not always drawn.

Legend:
[1] = Determination of hygroscopicity (water absorption in open weighing bottle, artificial climate chamber); assay type: physicochemical; settings: 25±1° C., relative humidity 43.5±2%; for Water absorption, %: open weighing bottle, disodium salt
Experimental: 1. Take a dry stuffed glass weighing bottle (outer diameter 50 mm, height 15 mm) in the artificial climate chamber (set temperature is 25±1° C., relative humidity is 43.5±2%) and weight it (m1).
2. Take the appropriate amount of the crystalline form in the present invention, and place it in the abovementioned weighing bottle and lay it inside the weighing bottle. The thickness of the test sample is generally about 1 mm. Weight the sample (m2).
3. Uncover the weighing bottle and place it with the bottle cap under constant temperature and humidity (set temperature is 25±1° C., relative humidity is 43.5±2%).
4. Put the cap back on the weighing bottle before weighing, and then weight it (m3). The water absorption percentage for each time point is calculated by the formula=(m3−m2)/(m2−m1)×100%.

[2] = cited from earlier work

In the case of CCCCC(=O)N(Cc1ccc(-c2ccccc2-c2nnn[nH]2)cc1)[C@H](C(=O)O)C(C)C [Crystalline form H, valsartan disodium salt], the “Water absorption, %” value ([1]; 2 h, listed as H) is reported as 2.0%, the “Water absorption, %” value ([1]; 4 h, listed as H) is reported as 2.8% and the “Water absorption, %” value ([1]; 24 h, listed as H) is reported as 4.0%.

With CCCCC(=O)N(Cc1ccc(-c2ccccc2-c2nnn[nH]2)cc1)[C@H](C(=O)O)C(C)C [Crystalline form A, valsartan disodium salt] the “Water absorption, %” value ([1]; 2 h, listed as A) was 1.6%, the water absorption ([1]; 3 hours, open container) was 2.6% and the “Water absorption, %” value ([1]; 4 h, listed as A) was 2.0%. The “Water absorption, %” value ([1]; 24 h, listed as A) was 2.4%.

With CCCCC(=O)N(Cc1ccc(-c2ccccc2-c2nnn[nH]2)cc1)[C@H](C(=O)O)C(C)C [Crystalline form E, valsartan disodium salt] the “Water absorption, %” value ([1]; 2 h, listed as E) was 2.1%, the “Water absorption, %” value ([1]; 4 h, listed as E) was 2.9% and the “Water absorption, %” value ([1]; 24 h, listed as E) was 3.6%.

For CCCCC(=O)N(Cc1ccc(-c2ccccc2-c2nnn[nH]2)cc1)[C@H](C(=O)O)C(C)C [Crystalline form B, valsartan disodium salt], the “Water absorption, %” value ([1]; 2 h, listed as B) was 1.9%, the “Water absorption, %” value ([1]; 4 h, listed as B) was 2.3% and the “Water absorption, %” value ([1]; 24 h, listed as B) was 3.0%.

In the case of CCCCC(=O)N(Cc1ccc(-c2ccccc2-c2nnn[nH]2)cc1)[C@H](C(=O)O)C(C)C [valsartan disodium salt], the hygroscopicity ([2]; equilibrated in air, 5.36 mol H2O by elemental analysis (CN01813039.9)) is listed as “up to 20%”.

In the case of CCCCC(=O)N(Cc1ccc(-c2ccccc2-c2nnn[nH]2)cc1)[C@H](C(=O)O)C(C)C [Crystalline form D, valsartan disodium salt], the “Water absorption, %” value ([1]; 2 h, listed as D) is reported as 1.3%, the “Water absorption, %” value ([1]; 4 h, listed as D) is reported as 1.9% and the “Water absorption, %” value ([1]; 24 h, listed as D) is reported as 2.7%.

With CCCCC(=O)N(Cc1ccc(-c2ccccc2-c2nnn[nH]2)cc1)[C@H](C(=O)O)C(C)C [Crystalline form F, valsartan disodium salt] the “Water absorption, %” value ([1]; 2 h, listed as F) was 1.7%, the “Water absorption, %” value ([1]; 4 h, listed as F) was 2.2% and the “Water absorption, %” value ([1]; 24 h, listed as F) was 2.8%.

In the case of CCCCC(=O)N(Cc1ccc(-c2ccccc2-c2nnn[nH]2)cc1)[C@H](C(=O)O)C(C)C [Crystalline form G, valsartan disodium salt], the “Water absorption, %” value ([1]; 2 h, listed as G) is reported as 0.7%, the “Water absorption, %” value ([1]; 4 h, listed as G) is reported as 1.3% and the “Water absorption, %” value ([1]; 24 h, listed as G) is reported as 1.5%.

For CCCCC(=O)N(Cc1ccc(-c2ccccc2-c2nnn[nH]2)cc1)[C@H](C(=O)O)C(C)C [Valsartan sodium salt], the “hygroscopicity (in words)” value ([2]; background statement) is given as “hygroscopic”.
